Assay results from patent US20230340011A1 (Asteroid Therapeutics, priority 2022, published 2023).

Assays:
[1] = molecular target: LXRβ (Homo sapiens (Human), UniProt P55055); test: In vitro assay LXRβ: PathHunter NHR CHO cells, LXRβ / Steroid Receptor Co-activator Peptide enzyme fragment complementation; format: cell-based; details: PathHunter NHR CHO cells, full-length human LXRβ and SRCP, chemiluminescent signal; read-out: LXRβ PPI
How it was run: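 Enzyme fragment complementation read-out: CHO cells stably expressing ProLink-tagged full-length human LXRβ plus nuclear enzyme acceptor–SRCP fusion, seeded and held overnight at 37° C. Medium with charcoal-dextran filtered serum; final vehicle 1%. Chemiluminescence measured after signal generation.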

[2] = molecular target: SREBP-2 (Homo sapiens (Human), UniProt Q12772); test: In vitro assay SREBP-2: PathHunter U2OS SREBP-2 Nuclear Translocation Cell Line, U18666A-stimulated; format: cell-based; details: PathHunter U2OS SREBP-2 nuclear translocation cells, U18666A 10 μM, overnight (16 hours)

LXRβ, sequence (P55055 whole entry, the tested form may be a part): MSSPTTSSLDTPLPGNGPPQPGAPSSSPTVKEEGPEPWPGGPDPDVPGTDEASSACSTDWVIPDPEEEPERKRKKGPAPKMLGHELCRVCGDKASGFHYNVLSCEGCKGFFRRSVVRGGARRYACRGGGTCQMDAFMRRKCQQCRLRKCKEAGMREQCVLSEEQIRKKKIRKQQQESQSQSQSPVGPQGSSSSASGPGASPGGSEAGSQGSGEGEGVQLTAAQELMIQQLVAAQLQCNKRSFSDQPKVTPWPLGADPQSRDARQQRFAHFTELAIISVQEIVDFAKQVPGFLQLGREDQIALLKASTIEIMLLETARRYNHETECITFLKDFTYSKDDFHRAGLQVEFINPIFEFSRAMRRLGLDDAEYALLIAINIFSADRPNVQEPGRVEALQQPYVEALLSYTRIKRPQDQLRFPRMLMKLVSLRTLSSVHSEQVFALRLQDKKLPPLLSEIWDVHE

SMILES	EC50 [1] [nM]	IC50 [2] [nM]
C[C@H](CCC(=O)N1OC(C)(C)[C@H]2COC[C@H]21)[C@H]1CC[C@H]2[C@@H]3CC=C4C[C@@H](O)CC[C@]4(C)[C@H]3CC[C@]12C [Example 49, (R)-1-((3aR,6aS)-3,3-dimethyltetrahydro-1H,3H-furo[3,4-c]isoxazol-1-yl)-4-((3S,8S,9S,10R,13R,14S,17R)-3-hydroxy-10,13-dimethyl-2,3,4,7,8,9,10,11,12,13,14,15,16,17-tetradecahydro-1H-cyclopenta[a]phenanthren-17-yl)pentan-1-one]	250 to 1000	250 to 1000
C[C@H](CCC(=O)N1CCC[C@@](C)(O)C1)[C@H]1CC[C@H]2[C@@H]3CC=C4C[C@@H](O)CC[C@]4(C)[C@H]3CC[C@]12C [Example 105, (R)-4-((3S,8S,9S,10R,13R,14S,17R)-3-hydroxy-10,13-dimethyl-2,3,4,7,8,9,10,11,12,13,14,15,16,17-tetradecahydro-1H-cyclopenta[a]phenanthren-17-yl)-1-((R)-3-hydroxy-3-methylpiperidin-1-yl) pentan-1-one]	1000 to 10000	< 250
C[C@H](CCC(=O)N1CCN(C)C(=O)C1)[C@H]1CC[C@H]2[C@@H]3CC=C4C[C@@H](O)CC[C@]4(C)[C@H]3CC[C@]12C [Example 361, 4-[(4R)-4-[(1R,3aS,3bS,7S,9aR,9bS,11aR)-7-hydroxy-9a,11a-dimethyl-1H,2H,3H,3aH,3bH,4H,6H,7H,8H,9H,9aH,9bH,10H,11H,11aH-cyclopenta[a]phenanthren-1-yl]pentanoyl]-1-methylpiperazin-2-one]	> 10000	250 to 1000
COc1ncncc1N1CCN(C(=O)CC[C@@H](C)[C@H]2CC[C@H]3[C@@H]4CC=C5C[C@@H](O)CC[C@]5(C)[C@H]4CC[C@]23C)CC1 [Example 614, (4R)-4-[(1R,3aS,3bS,7S,9aR,9bS,11aR)-7-hydroxy-9a,11a-dimethyl-1H,2H,3H,3aH,3bH,4H,6H,7H,8H,9H,9aH,9bH,10H,11H,11aH-cyclopenta[a]phenanthren-1-yl]-1-[4-(4-methoxypyrimidin-5-yl)piperazin-1-yl]pentan-1-one]	> 10000	< 250
COc1ncc(OC)c(N2CCN(C(=O)CC[C@@H](C)[C@H]3CC[C@H]4[C@@H]5CC=C6C[C@@H](O)CC[C@]6(C)[C@H]5CC[C@]34C)CC2)n1 [Example 617, (R)-1-(4-(2,5-dimethoxypyrimidin-4-yl)piperazin-1-yl)-4-((3S,8S,9S,10R,13R,14S,17R)-3-hydroxy-10,13-dimethyl-2,3,4,7,8,9,10,11,12,13,14,15,16,17-tetradecahydro-1H-cyclopenta[a]phenanthren-17-yl)pentan-1-one]	> 10000	< 250
C[C@H](CCC(=O)N1CCN(c2ccnc(N(C)C)n2)CC1)[C@H]1CC[C@H]2[C@@H]3CC=C4C[C@@H](O)CC[C@]4(C)[C@H]3CC[C@]12C [Example 562, (R)-1-(4-(2-(dimethylamino)pyrimidin-4-yl)piperazin-1-yl)-4-((3S,8S,9S,10R,13R,14S,17R)-3-hydroxy-10,13-dimethyl-2,3,4,7,8,9,10,11,12,13,14,15,16,17-tetradecahydro-1H-cyclopenta[a]phenanthren-17-yl)pentan-1-one]	> 10000	< 250
C[C@H](CCC(=O)N1CCN(c2nccc3ccncc23)CC1)[C@H]1CC[C@H]2[C@@H]3CC=C4C[C@@H](O)CC[C@]4(C)[C@H]3CC[C@]12C [Example 628, (R)-1-(4-(2,7-naphthyridin-1-yl)piperazin-1-yl)-4-((3S,8S,9S,10R,13R,14S,17R)-3-hydroxy-10,13-dimethyl-2,3,4,7,8,9,10,11,12,13,14,15,16,17-tetradecahydro-1H-cyclopenta[a]phenanthren-17-yl)pentan-1-one]	> 10000	< 250
C[C@H](CCc1cc(F)ccn1)[C@H]1CC[C@H]2[C@@H]3CC=C4C[C@@H](O)CC[C@]4(C)[C@H]3CC[C@]12C [Example 163, (3S,8S,9S,10R,13R,14S,17R)-17-((R)-4-(4-fluoropyridin-2-yl)butan-2-yl)-10,13-dimethyl-2,3,4,7,8,9,10,11,12,13,14,15,16,17-tetradecahydro-1H-cyclopenta[a]phenanthren-3-ol]	1000 to 10000	< 250
C[C@H](CCC(=O)N1CCN(c2ccncc2)C[C@@H]1C)[C@H]1CC[C@H]2[C@@H]3CC=C4C[C@@H](O)CC[C@]4(C)[C@H]3CC[C@]12C [Example 580, (R)-4-((3S,8S,9S,10R,13R,14S,17R)-3-hydroxy-10,13-dimethyl-2,3,4,7,8,9,10,11,12,13,14,15,16,17-tetradecahydro-1H-cyclopenta[a]phenanthren-17-yl)-1-((S)-2-methyl-4-(pyridin-4-yl)piperazin-1-yl)pentan-1-one]	> 10000	< 250
C[C@H](COc1cccc(CO)n1)[C@H]1CC[C@H]2[C@@H]3CC=C4C[C@@H](O)CC[C@]4(C)[C@H]3CC[C@]12C [Example 260, (3S,8S,9S,10R,13S,14S,17R)-17-((S)-1-((6-(hydroxymethyl)pyridin-2-yl)oxy)propan-2-yl)-10,13-dimethyl-2,3,4,7,8,9,10,11,12,13,14,15,16,17-tetradecahydro-1H-cyclopenta[a]phenanthren-3-ol]	> 10000	< 250
C[C@H](CCC(=O)N1CC[C@@H](C(O)(C(F)(F)F)C(F)(F)F)C1)[C@H]1CC[C@H]2[C@@H]3CC=C4C[C@@H](O)CC[C@]4(C)[C@H]3CC[C@]12C [Example 98, (R)-1-((R)-3-(1,1,1,3,3,3-hexafluoro-2-hydroxypropan-2-yl)pyrrolidin-1-yl)-4-((3S,8S,9S,10R,13R,14S,17R)-3-hydroxy-10,13-dimethyl-2,3,4,7,8,9,10,11,12,13,14,15,16,17-tetradecahydro-1H-cyclopenta[a]phenanthren-17-yl)pentan-1-one]	> 10000	< 250
C[C@H](CCc1cscn1)[C@H]1CC[C@H]2[C@@H]3CC=C4C[C@@H](O)CC[C@]4(C)[C@H]3CC[C@]12C [Example 175, (1R,3aS,3bS,7S,9aR,9bS,11aR)-9a,11a-dimethyl-1-[(2R)-4-(1,3-thiazol-4-yl)butan-2-yl]-1H,2H,3H,3aH,3bH,4H,6H,7H,8H,9H,9aH,9bH,10H,11H,11aH-cyclopenta[a]phenanthren-7-ol]	1000 to 10000	< 250
COc1ccnc(N2CCN(C(=O)CC[C@@H](C)[C@H]3CC[C@H]4[C@@H]5CC=C6C[C@@H](O)CC[C@]6(C)[C@H]5CC[C@]34C)CC2)c1 [Example 657, (R)-4-((3S,8S,9S,10R,13R,14S,17R)-3-hydroxy-10,13-dimethyl-2,3,4,7,8,9,10,11,12,13,14,15,16,17-tetradecahydro-1H-cyclopenta[a]phenanthren-17-yl)-1-(4-(4-methoxypyridin-2-yl)piperazin-1-yl)pentan-1-one]	> 10000	< 250
COc1cc(N2CCN(C(=O)CC[C@@H](C)[C@H]3CC[C@H]4[C@@H]5CC=C6C[C@@H](O)CC[C@]6(C)[C@H]5CC[C@]34C)[C@@H](C)C2)ncn1 [Example 648, (R)-4-((3S,8S,9S,10R,13R,14S,17R)-3-hydroxy-10,13-dimethyl-2,3,4,7,8,9,10,11,12,13,14,15,16,17-tetradecahydro-1H-cyclopenta[a]phenanthren-17-yl)-1-((S)-4-(6-methoxypyrimidin-4-yl)-2-methylpiperazin-1-yl)pentan-1-one]	> 10000	< 250
CC(=O)NC1(C)CCN(C(=O)CC[C@@H](C)[C@H]2CC[C@H]3[C@@H]4CC=C5C[C@@H](O)CC[C@]5(C)[C@H]4CC[C@]23C)CC1 [Example 83, N-(1-((R)-4-((3S,8S,9S,10R,13R,14S,17R)-3-hydroxy-10,13-dimethyl-2,3,4,7,8,9,10,11,12,13,14,15,16,17-tetradecahydro-1H-cyclopenta[a]phenanthren-17-yl)pentanoyl)-4-methylpiperidin-4-yl)acetamide]	> 10000	250 to 1000
COC(=O)N1CCN(C(=O)CC[C@@H](C)[C@H]2CC[C@H]3[C@@H]4CC=C5C[C@@H](O)CC[C@]5(C)[C@H]4CC[C@]23C)C[C@@H]1C [Example 566, Methyl (2S)-4-[(4R)-4-[(1R,3aS,3bS,7S,9aR,9bS,11aR)-7-hydroxy-9a,11a-dimethyl-1H,2H,3H,3aH,3bH,4H,6H,7H,8H,9H,9aH,9bH,10H,11H,11aH-cyclopenta[a]phenanthren-1-yl]pentanoyl]-2-methylpiperazine-1-carboxylate]	> 10000	< 250
C[C@@H](CCC(=O)N[C@H]1CC[C@@H](C(=O)N(C)C)CC1)[C@H]1CC[C@H]2[C@@H]3CC=C4C[C@@H](O)CC[C@]4(C)[C@H]3CC[C@]12C [Example 641, (1S,4s)-4-((R)-4-((3S,8S,9S,10R,13R,14S,17R)-3-hydroxy-10,13-dimethyl-2,3,4,7,8,9,10,11,12,13,14,15,16,17-tetradecahydro-1H-cyclopenta[a]phenanthren-17-yl)pentanamido)-N,N-dimethylcyclohexane-1-carboxamide]	> 10000	< 250
COc1cccnc1NC(=O)CC[C@@H](C)[C@H]1CC[C@H]2[C@@H]3CC=C4C[C@@H](O)CC[C@]4(C)[C@H]3CC[C@]12C [Example 625, (R)-4-((3S,8S,9S,10R,13R,14S,17R)-3-hydroxy-10,13-dimethyl-2,3,4,7,8,9,10,11,12,13,14,15,16,17-tetradecahydro-1H-cyclopenta[a]phenanthren-17-yl)-N-(3-methoxypyridin-2-yl)pentanamide]	> 10000	< 250
